Paper PMC12560828, “Chemical structure drives developmental toxicity of alkyl-substituted naphthalenes in zebrafish” (Environment international, 2025)

Legend:
[1] = tested on: zebrafish larvae, 120 hpf; experiment: Larval photomotor response (LPR) assay after vial exposure; assay type: in vivo, Danio rerio; conditions: for fold_change: LPR
Method: (§1) When embryos were 6 hpf they were bleached in groups of 1000 or less to limit bacterial growth in sealed vials. Embryos were placed in a strainer for transfer between solutions in 500 mL containers. […] Pools of eight embryos were placed into 2 mL clear glass screw cap exposure vials with polyvinyl-faced pulp liner (Avantar Radnor, PA, United States) using a glass Pasteur pipette. Excess EM was removed, and 2 mL of fresh EM was immediately added. A total of 10 uL of 200x working stock (in DMSO) was added to each vial, then immediately capped and inverted three times to mix. […] Vials were loaded into a custom 3D printed vial holder for slow end-over-end rotation in a dark 28 °C incubator overnight. […] At 24 hpf, embryos were removed from exposure vials and singulated into 96-well plates loaded with 100 μL chemical-free EM. Each exposure vial group was maintained in plate columns. After loading into 96-well plates, embryos were assessed for 24-hour mortality. For the remainder of the exposure, plates were kept stationary at 28 °C in the dark, until 120 hpf when morphology screening and the larval photo motor response (LPR) assay were conducted, section 2.3.2 and section 2.3.3, respectively.
Each treatment group was replicated over four vials, resulting in 32 embryos per treatment, split over two replicate 96-well plates per chemical. […] Vial groups of plated larvae were tracked to assess the impact of the vial on the results. All reported concentrations were nominal water concentrations and are included in SI-T4.
The LPR assay was conducted at 120 hpf. […] Larval movement was tracked throughout minutes 6–24. Animals dead or morphologically abnormal were excluded from the analysis, and if more than 30 % of the wells in a treatment group were excluded, the treatment was removed.
Movement values were binned into 6s intervals, log normalized and used to calculate area under the curve (AUC). AUC values from the first cycle after calibration were used to calculate the LEL for each period (light and dark).

[2] = tested on: early life stage zebrafish (Danio rerio) embryos; experiment: Developmental toxicity morphology screen, sealed rotating vial exposure; assay type: in vivo; design: bmd, MO24 / bmd, MORT / bmd, ANY_ / bmd, AXIS / bmd, CRAN / bmd, EDEM / bmd, LTRK / bmd, MUSC / bmdL, ANY_ / bmdU, ANY_ / bmdL, AXIS / bmdU, AXIS / bmdL, CRAN / bmdU, CRAN / bmdL, EDEM / bmdU, EDEM / bmdL, LTRK / bmdU, LTRK / bmdL, MO24 / bmdU, MO24 / bmdL, MORT / bmdU, MORT: unit not given here; conditions: for BMC50 AXIS (curved or bent body axis at 120 hpf) / BMC50 CRAN (craniofacial malformation at 120 hpf) / BMC50 EDEM (pericardial and/or yolk sac edema at 120 hpf) / BMC50 LTRK (lower trunk and/or caudal fin at 120 hpf) / BMC50 MO24 (mortality at 24 hpf) / BMC50 MORT (mortality at 120 hpf): Fig. 2; for BMC50 AXIS (curved or bent body axis at 120 hpf) / BMC50 CRAN (craniofacial malformation at 120 hpf) / BMC50 EDEM (pericardial and/or yolk sac edema at 120 hpf) / BMC50 LTRK (lower trunk and/or caudal fin at 120 hpf) / BMC50 MO24 (mortality at 24 hpf) / BMC50 MORT (mortality at 120 hpf) / BMC50 Any effect: nominal concentration; for BMC50 Any effect: Fig. 2 heatmap, exposure 6-24 hpf in vials, summary of all endpoints; for any effect BMD50: SI-T5; for bmd, MO24 / bmd, MORT / bmd, ANY_ / bmd, AXIS / bmd, CRAN / bmd, EDEM / bmd, LTRK: benchmark dose; for bmd, MO24: endpoint MO24; for bmd, MORT: endpoint MORT; for bmd, ANY_: morphology endpoint ANY_ (any effect); for bmd, AXIS: morphology endpoint AXIS; for bmd, CRAN: morphology endpoint CRAN; for bmd, EDEM: morphology endpoint EDEM; for bmd, LTRK: morphology endpoint LTRK
Method: as §1
Each treatment group was replicated over four vials, resulting in 32 embryos per treatment, split over two replicate 96-well plates per chemical. […] All reported concentrations were nominal water concentrations and are included in SI-T4.
At 24 hpf embryos were assessed for mortality (MO24). At 120 hpf embryos were assessed for abnormality in […] morphological endpoints: mortality (MORT), edemas (EDEM), bent axis (AXIS), touch response (TCHR), craniofacial (CRAN), muscular/cardiovascular (MUSC), lower trunk (LRTK), brain (BRAN), skin (SKIN), and notochord malformations (NC). Morphological assessments were made by a team of three to four individuals. The team was blinded to the identity, plate layout, and concentrations of the chemicals, thereby minimizing bias in morphological screening assessment. To ensure the assessments were consistent, concentration–response reproducibility of a parathion ethyl quality control plate was performed along with each experimental exposure set up. Details of all measured endpoints can be found at Developmental toxicity zebrafish phenotype atlas. […] Each endpoint was scored as a binary presence/absence and scores were compiled into an “Any effect” endpoint, the presence of abnormality in any individual endpoint.
The Any effect percent was used to calculate the BMC50, 50 % change relative to the background for each endpoint and chemical. All values were reported as the nominal exposure concentration.

[3] = period dark, round 1, conc 3.125
[4] = period dark, round 1, conc 6.25
[5] = period dark, round 1, conc 12.5
[6] = period light, round 1, conc 3.125
[7] = period light, round 1, conc 6.25
[8] = period light, round 1, conc 12.5
[9] = period dark, round 2, conc 37.5
[10] = period light, round 2, conc 37.5

SMILES | fold_change [1, 3] | fold_change [1, 4] | fold_change [1, 5] | fold_change ([1]; period dark, round 1, conc 25) | fold_change [1, 6] | fold_change [1, 7] | fold_change [1, 8] | fold_change ([1]; period light, round 1, conc 25) | BMC50 AXIS (curved or bent body axis at 120 hpf) [2] [µM] | BMC50 CRAN (craniofacial malformation at 120 hpf) [2] [µM] | BMC50 EDEM (pericardial and/or yolk sac edema at 120 hpf) [2] [µM] | BMC50 MO24 (mortality at 24 hpf) [2] [µM] | BMC50 MORT (mortality at 120 hpf) [2] [µM] | BMC50 Any effect [2] [µM] | any effect BMD50 [2] [µM] | bmd, MO24 [2] | bmd, MORT [2] | bmd, ANY_ [2] | bmd, AXIS [2] | bmd, CRAN [2] | further results
Cc1ccc2c(C)c(C)ccc2c1C [1,2,5,6-tetramethylnaphthalene] | -0.03133 | -0.4187 | -0.4196 | -0.1628 | 0.2549 | -0.3197 | 0.8672 | -0.1531 | – | – | – | – | – | – | – | – | – | – | – | – | fold_change ([1]; period dark, round 1, conc 50): -0.3813; fold_change ([1]; period light, round 1, conc 50): 0.1565
Cc1ccc2ccccc2c1C [1,2-dimethylnaphthalene] | – | – | – | – | – | – | – | – | – | – | – | – | – | – | – | – | – | – | – | – | LPR behavioral effect ([1]; 120 hpf, light/dark periods, result in words): active
Cc1cc2c(C)ccc(C)c2cc1C [1,4,6,7-tetramethylnaphthalene] | 0.4047 | -0.3364 | -0.3332 | – | -0.4049 | 0.02072 | -0.2213 | – | 21.1 | 23.9 | 22.5 | 35.4 | 29.4 | 20.5 | 20.47 | 35.4057 | 29.3744 | 20.4728 | 21.1106 | 23.8517 | BMC50 LTRK (lower trunk and/or caudal fin at 120 hpf) [2]: 22.6 µM; bmd, EDEM [2]: 22.5215; bmd, LTRK [2]: 22.6067
Cc1ccc(C)c2ccccc12 [1,4-dimethylnaphthalene] | 0.2846 | -0.05841 | -0.1506 | -0.2067 | 0.303 | -0.4509 | 1.1 | 0.6023 | – | – | – | 30.4 | 28.3 | 24.9 | 24.93 | 30.4433 | 28.3398 | 24.9263 | – | – | –
Cc1cc2cccc(C)c2cc1C [1,6,7-trimethylnaphthalene] | -0.2752 | -0.07056 | -0.09309 | – | -0.921 | -0.5316 | -0.2101 | – | 32.1 | 28.2 | 34.7 | 38.9 | 31.5 | 21.4 | 21.39 | 38.9242 | 31.4823 | 21.386 | 32.075 | 28.1944 | fold_change ([1]; period dark, round 2, conc 12.8): -0.1665; fold_change ([1]; period dark, round 2, conc 16): -0.296; fold_change ([1]; period dark, round 2, conc 20): -0.09002; fold_change ([1]; period light, round 2, conc 12.8): 0.6308; fold_change ([1]; period light, round 2, conc 16): -0.8625; fold_change ([1]; period light, round 2, conc 20): 0.7418; BMC50 LTRK (lower trunk and/or caudal fin at 120 hpf) [2]: 32.9 µM; bmd, EDEM [2]: 34.7005; bmd, LTRK [2]: 32.865
Cc1ccc2c(C)cccc2c1 [1,6-dimethylnaphthalene] | – | – | – | – | – | – | – | – | 46.6 | 42.5 | 46 | 46.6 | 43.4 | 34.6 | 34.56 | 46.5621 | 43.4183 | 34.5645 | 46.5655 | 42.4789 | bmd, EDEM [2]: 45.9847
Cc1cccc2cccc(C)c12 [1,8-dimethylnaphthalene] | -0.1333 | 0.3857 | -0.2522 | -0.4588 | 0.4922 | 0.5326 | -0.3791 | 0.4908 | – | – | – | 49.8 | 48.7 | 41.2 | 41.15 | 49.8371 | 48.678 | 41.1508 | – | – | fold_change ([1]; period dark, round 2, conc 30): -0.4155; fold_change [1, 9]: -0.7493; fold_change ([1]; period dark, round 2, conc 45): -0.6849; fold_change ([1]; period light, round 2, conc 30): -0.235; fold_change [1, 10]: -0.3043; fold_change ([1]; period light, round 2, conc 45): 1.248
CCc1cccc2ccccc12 [1-ethylnaphthalene] | 0.05526 | 0.06428 | -0.02558 | -0.1629 | -0.3674 | -0.401 | -0.744 | 0.4136 | 43.9 | 46.3 | – | 44.6 | 41.9 | 33.7 | 33.7 | 44.6047 | 41.9285 | 33.6977 | 43.8887 | 46.3281 | fold_change ([1]; period dark, round 2, conc 30): -0.2464; fold_change [1, 9]: -0.2326; fold_change ([1]; period light, round 2, conc 30): 0.3971; fold_change [1, 10]: -0.206
